According to patent publication US20050250836A1, “Inhibitors of checkpoint kinases (Wee1 and Chk1)” (Pfizer Inc, priority 2004, published 2005):

SMILES | melting point
Cl.NCCCn1cc(Br)c2c3c(c(-c4ccccc4Cl)cc21)C(=O)NC3=O | 310 to 313 °C
COc1ccccc1-c1cc2c(ccn2C)c2c1C(=O)NC2=O [Example 27, 4-(2-Methoxyphenyl)-6-methyl-6H-2,6-diaza-as-indacene-1,3-dione] | 243 to 245 °C
COc1ccccc1-c1cc2c(c(Cl)cn2C)c2c1C(=O)NC2=O [Example 30, 8-Chloro-4-(2-methoxyphenyl)-6-methyl-6H-2,6-diaza-as-indacene-1,3-dione] | 267 to 271 °C
CSc1ccccc1-c1cc2c(c(Br)cn2C)c2c1C(=O)NC2=O [Example 31, 8-Bromo-6-methyl-4-(2-methylsulfanylphenyl)-6H-2,6-diaza-as-indacene-1,3-dione] | 240 to 243 °C
COc1cccc(Cl)c1-c1cc2c(c(Br)cn2C)c2c1C(=O)NC2=O [Example 34, 8-Bromo-4-(2-chloro-6-methoxyphenyl)-6-methyl-6H-2,6-diaza-as-indacene-1,3-dione] | 238 to 242 °C
COCCCn1ccc2c3c(c(-c4ccccc4Cl)cc21)C(=O)NC3=O [Example 43, 4-(2-Chlorophenyl)-6-(3-methoxypropyl)-6H-2,6-diaza-as-indacene-1,3-dione] | 171 to 172 °C
COCCCn1cc(Br)c2c3c(c(-c4ccccc4Cl)cc21)C(=O)NC3=O [Example 44, 8-Bromo-4-(2-chlorophenyl)-6-(3-methoxypropyl)-6H-2,6-diaza-as-indacene-1,3-dione] | 149 to 151 °C
O=C1NC(=O)c2c1c(-c1ccccc1Cl)cc1c2cc(C(=O)O)n1CCCBr [Example 49, 6-(3-Bromopropyl)-4-(2-chlorophenyl)-1,3-dioxo-1,2,3,6-tetrahydro-2,6-diaza-as-indacene-7-carboxylic acid] | 294 to 295 °C
COCCCn1c(C(N)=O)cc2c3c(c(-c4ccccc4Cl)cc21)C(=O)NC3=O [Example 51, 4-(2-Chlorophenyl)-6-(3-methoxypropyl)-1,3-dioxo-1,2,3,6-tetrahydro-2,6-diaza-as-indacene-7-carboxylic acid amide] | 260 to 261 °C
CCOCCOCCn1c(C=O)c(Br)c2c3c(c(-c4ccccc4Cl)cc21)C(=O)NC3=O [Example 56, 8-Bromo-4-(2-chlorophenyl)-6-[2-(2-ethoxyethoxy)ethyl]-1,3-dioxo-1,2,3,6-tetrahydro-2,6-diaza-as-indacene-7-carbaldehyde] | 203 to 205 °C
COCCCn1c(CO)cc2c3c(c(-c4ccccc4Cl)cc21)C(=O)NC3=O [Example 59, 4-(2-Chlorophenyl)-7-hydroxymethyl-6-(3-methoxypropyl)-6H-2,6-diaza-as-indacene-1,3-dione] | 187 to 189 °C
COCCCn1c(C=O)c(Br)c2c3c(c(-c4ccccc4Cl)cc21)C(=O)NC3=O [Example 61, 8-Bromo-4-(2-chlorophenyl)-6-(3-methoxypropyl)-1,3-dioxo-1,2,3,6-tetrahydro-2,6-diaza-as-indacene-7-carbaldehyde] | 206 to 207 °C
O=C1NC(=O)c2c1c(-c1ccccc1Cl)cc1c2c(Br)c(CO)n1CCCO [Example 63, 8-Bromo-4-(2-chlorophenyl)-7-hydroxymethyl-6-(3-hydroxypropyl)-6H-2,6-diaza-as-indacene-1,3-dione] | 203 to 205 °C
COCCCn1c(C=O)c(Cl)c2c3c(c(-c4ccccc4Cl)cc21)C(=O)NC3=O [Example 64, 8-Chloro-4-(2-chlorophenyl)-6-(3-methoxypropyl)-1,3-dioxo-1,2,3,6-tetrahydro-2;6-diaza-as-indacene-7-carbaldehyde] | 198 to 199 °C

Next, values leading:

melting point | SMILES
216 to 220 °C | COc1ccccc1-c1cc2c(c(Br)cn2C)c2c1C(=O)NC2=O [Example 28, 8-Bromo-4-(2-methoxyphenyl)-6-methyl-6H-2,6-diaza-as-indacene-1,3-dione]
150 to 154 °C (dec.) | Cn1cc(I)c2c3c(c(-c4ccccc4Cl)cc21)C(=O)NC3=O [Example 32, 4-(2-Chlorophenyl)-8-iodo-6-methyl-6H-2,6-diaza-as-indacene-1,3-dione]
268 to 272 °C | COc1cccc(Cl)c1-c1cc2c(ccn2C)c2c1C(=O)NC2=O [Example 33, 4-(2-Chloro-6-methoxyphenyl)-6-methyl-6H-2,6-diaza-as-indacene-1,3-dione]
173 °C | CCOCCOCCn1ccc2c3c(c(-c4ccccc4Cl)cc21)C(=O)NC3=O [Example 35, 4-(2-Chlorophenyl)-6-[2-(2-ethoxyethoxy)ethyl]-6H-2,6-diaza-as-indacene-1,3-dione]
108 to 110 °C | CCOCCOCCn1cc(Br)c2c3c(c(-c4ccccc4Cl)cc21)C(=O)NC3=O [Example 36, 8-Bromo-4-(2-chlorophenyl)-6-[2-(2-ethoxyethoxy)ethyl]-6H-2,6-diaza-as-indacene-1,3-dione]
225 to 227 °C | O=C1NC(=O)c2c1c(-c1ccccc1Cl)cc1c2ccn1CCCO [Example 42, 4-(2-Chlorophenyl)-6-(3-hydroxypropyl)-6H-2,6-diaza-as-indacene-1,3-dione]
235 to 237 °C | CCOC(=O)c1cc2c3c(c(-c4ccccc4Cl)cc2n1CCCOC)C(=O)NC3=O [Example 46, 4-(2-Chlorophenyl)-6-(3-methoxypropyl)-1,3-dioxo-1,2,3,6-tetrahydro-2,6-diaza-as-indacene-7-carboxylic acid ethyl ester]
272 to 274 °C | COCCCn1c(C(=O)O)cc2c3c(c(-c4ccccc4Cl)cc21)C(=O)NC3=O [Example 47, 4-(2-Chlorophenyl)-6-(3-methoxypropyl)-1,3-dioxo-1,2,3,6-tetrahydro-2,6-diaza-as-indacene-7-carboxylic acid]
249 to 251 °C | CCOC(=O)c1cc2c3c(c(-c4ccccc4Cl)cc2n1CCCO)C(=O)NC3=O [Example 48 (ii), 4-(2-Chlorophenyl)-6-(3-hydroxypropyl)-1,3-dioxo-1,2,3,6-tetrahydro-2,6-diaza-as-indacene-7-carboxylic acid ethyl ester]
218 to 220 °C | O=C1NC(=O)c2c1c(-c1ccccc1Cl)cc1c2cc(CO)n1CCCBr [Example 50, 6-(3-Bromopropyl)-4-(2-chlorophenyl)-7-hydroxymethyl-6H-2,6-diaza-as-indacene-1,3-dione]
162 to 165 °C | CCOCCOCCn1c(C=O)cc2c3c(c(-c4ccccc4Cl)cc21)C(=O)NC3=O [Example 55, 4-(2-Chlorophenyl)-6-[2-(2-ethoxyethoxy)ethyl]-1,3-dioxo-1,2,3,6-tetrahydro-2,6-diaza-as-indacene-7-carbaldehyde]
155 to 156 °C | COCCCn1c(C=O)cc2c3c(c(-c4ccccc4Cl)cc21)C(=O)NC3=O [Example 58, 4-(2-Chlorophenyl)-6-(3-methoxypropyl)-1,3-dioxo-1,2,3,6-tetrahydro-2,6-diaza-as-indacene-7-carbaldehyde]
178 to 180 °C | COCCCn1c(CO)c(Br)c2c3c(c(-c4ccccc4Cl)cc21)C(=O)NC3=O [Example 60, 8-Bromo-4-(2-chlorophenyl)-7-hydroxymethyl-6-(3-methoxypropyl)-6H-2,6-diaza-as-indacene-1,3-dione]
